Positions of bridges follow the written chain, without caps; N, C: chain ends. Non-standard residues stand in square brackets, D forms with d. Residues, ends and D or L forms follow the SMILES beside them.
Tested on: B16/F1 melanoma
Test: Biodistribution in B16/F1 melanoma-bearing C57 mice
Format: in vivo
Details: for Tumor uptake blocked by NDP-MSH: 6.1 nmol of NDP-MSH; for Tumor uptake decreased (blocked) by RGD co-injection: 3.5 μg (6.1 nmol) of RGD; for Tumor uptake with NDP-MSH co-injection as % of the tumor uptake without: 10 μg (6.1 nmol) NDP-MSH, 2 h after dose administration
Method: All the animal studies were conducted in compliance with Institutional Animal Care and Use Committee approval. The pharmacokinetics of ^99mTc-RGD-Lys-(Arg^11)CCMSH was determined in B16/F1 melanoma-bearing C57 female mice (Harlan, Indianapolis, Ind.). C57 mice were subcutaneously inoculated on the right flank with 1×10^6 B16/F1 cells. The weight of tumors reached approximately 0.2 g 10 days post cell inoculation. Each melanoma-bearing mouse was injected with 0.037 MBq of ^99mTc-RGD-Lys-(Arg^11)CCMSH via the tail vein. Groups of 5 mice were sacrificed at 0.5, 2, 4 and 24 h post-injection, and tumors and organs of interest were harvested, weighed and counted. Blood values were taken as 6.5% of the whole-body weight. The MC1 receptor specificity of the tumor uptake was determined at 2 h post-injection by co-injecting ^99mTc-RGD-Lys-(Arg^11)CCMSH with 10 μg (6.1 nmol) of unlabeled NDP-MSH, a linear α-MSH peptide analogue with picomolar affinity for the MC1 receptors present on murine melanoma cells. The co-injection of 3.5 μg (6.1 nmol) of RGD peptide was performed to determine the αvβ3 integrin specificity of the tumor uptake 2 h post-injection. Statistical analysis was performed using the Student's t-test for unpaired data.
All the animal studies were conducted in compliance with Institutional Animal Care and Use Committee approval. The pharmacokinetics of ^99mTc-RGD-Arg-(Arg^11)CCMSH was determined in B16/F1 melanoma-bearing C57 female mice (Harlan, Indianapolis, Ind.). C57 mice were subcutaneously inoculated on the right flank with 1×10^6 B16/F1 cells. The weight of tumors reached approximately 0.2 g 10 days post cell inoculation. Each melanoma-bearing mouse was injected with 0.037 MBq of ^99mTc-RGD-Arg-(Arg^11)CCMSH via the tail vein. Groups of 5 mice were sacrificed at 0.5, 2, 4 and 24 h post-injection, and tumors and organs of interest were harvested, weighed and counted. Blood values were taken as 6.5% of the whole-body weight. The MC1 receptor specificity of the tumor uptake was determined at 2 h post-injection by co-injecting ^99mTc-RGD-Arg-(Arg^11)CCMSH with 10 μg (6.1 nmol) of unlabeled NDP-MSH. The co-injection of 3.5 μg (6.1 nmol) of RGD peptide was performed to determine the αvβ3 integrin specificity of the tumor uptake at 2 h post-injection.

Renal uptake values as % of those of ^99mTc-RGD-Lys-(Arg^11)CCMSH (0.5, 2, 4 and 24 h post-injection) | Renal uptake value as % of that of ^99mTc-RGD-Lys-(Arg^11)CCMSH (0.5 h post-injection) | Tumor uptake value, times that of ^99mTc-RGD-Lys-(Arg^11)CCMSH (0.5 h post-injection) | Renal uptake value as % of that of ^99mTc-RGD-Lys-(Arg^11)CCMSH (2 h post-injection) | Tumor uptake value, times that of ^99mTc-RGD-Lys-(Arg^11)CCMSH (2 h post-injection) | Renal uptake value as % of that of ^99mTc-RGD-Lys-(Arg^11)CCMSH (4 h post-injection) | Tumor uptake value as % of the tumor uptake value 2 h post-injection (4 h post-injection) | Tumor uptake value, times that of ^99mTc-RGD-Lys-(Arg^11)CCMSH (4 h post-injection) | Renal uptake value as % of that of ^99mTc-RGD-Lys-(Arg^11)CCMSH (24 h post-injection) | Tumor/kidney uptake ratio, times that of ^99mTc-RGD-Lys-(Arg^11)CCMSH (24 h post-injection) | Kidneys, Percentage Injected Dose/gram (4 h post-injection) | Renal uptake value, times that of ^99mTc-(Arg^11)CCMSH (4 h post-injection) | Tumor uptake value, times that of ^99mTc-(Arg^11)CCMSH (4 h post-injection) | Tumor uptake value as % of the tumor uptake value 2 h post-injection (24 h post-injection) | Tumor uptake value, times that of ^99mTc-(Arg^11)CCMSH (24 h post-injection) | Renal uptake value, times that of ^188Re-dLys-(Arg^11)CCMSH (mouse, in vivo) | Structure (SMILES) | Tumor uptake blocked by NDP-MSH (2 h post-injection) | Tumor uptake decreased (blocked) by RGD co-injection (2 h post-injection) | Tumor uptake with NDP-MSH co-injection as % of the tumor uptake without
40.14-64.08% | 53.65% | 1.27 times | 64.08% | 1.44 times | 52.89% | 75% | 1.28 times | 40.14% | 2.21 times |  |  |  |  |  |  | CC(C)[C@H](NC(=O)[C@@H]1CCCN1C(=O)[C@H](CCCNC(=N)N)NC(=O)[C@H](CS)NC(=O)[C@H](Cc1c[nH]c2ccccc12)NC(=O)[C@H](CCCNC(=N)N)NC(=O)[C@@H](Cc1ccccc1)NC(=O)[C@H](Cc1c[nH]cn1)NC(=O)[C@H](CCC(=O)O)NC(=O)[C@H](CS)NC(=O)[C@H](CS)NC(=O)[C@H](CCCNC(=N)N)NC(=O)[C@@H]1CC(=O)N[C@@H](CCCNC(=N)N)C(=O)NCC(=O)N[C@@H](CC(=O)O)C(=O)N[C@H](Cc2ccc(O)cc2)C(=O)N1)C(N)=O [^99mTc-RGD-Arg-(Arg^11)CCMSH, metal not drawn] (RGD[dY]DRCCEH[dF]RWCRPV-NH2; lactam N-5) | 90.9% | 21.2% | 9.15%
 |  |  |  |  |  | 85% |  |  |  | 69.29 ± 14.34 % ID/g | 12.5 times | 1.1 times | 51% | 2.3 times | 1.2 times | CC(C)[C@H](NC(=O)[C@@H]1CCCN1C(=O)[C@H](CCCNC(=N)N)NC(=O)[C@H](CS)NC(=O)[C@H](Cc1c[nH]c2ccccc12)NC(=O)[C@H](CCCNC(=N)N)NC(=O)[C@@H](Cc1ccccc1)NC(=O)[C@H](Cc1c[nH]cn1)NC(=O)[C@H](CCC(=O)O)NC(=O)[C@H](CS)NC(=O)[C@H](CS)NC(=O)[C@H](CCCCN)NC(=O)[C@@H]1CC(=O)N[C@@H](CCCNC(=N)N)C(=O)NCC(=O)N[C@@H](CC(=O)O)C(=O)N[C@H](Cc2ccc(O)cc2)C(=O)N1)C(N)=O [^99mTc-RGD-Lys-(Arg^11)CCMSH, metal not drawn] (RGD[dY]DKCCEH[dF]RWCRPV-NH2; lactam N-5) | 87.8% | 29.2% | 12.2%

— US9005575B2, “Arg-Gly-Asp-conjugated alpha-melanocyte stimulating hormone hybrid peptide for use in diagnosing and treating melanoma, including metastatic melanoma and methods related to same” (STC.UNM, priority 2009, dated 2015)
